Patent US20230119539A1, “TRACELESS LINKERS AND PROTEIN-CONJUGATES THEREOF” (Regeneron Pharmaceuticals, Inc., priority 2019, published 2023)
One block for each compound: values may come before it.

Key:
[1] = pH stability of quenched linker-payloads in buffers (LCMS); format: physicochemical
Experimental: To a solution of compound (payloads or quenched-linker-payloads) in DMSO (0.2-1.0 mg/mL) was added corresponding PBS buffer (V(buffer)/V(DMSO)=5) to give test samples (pH 3, 4, 5, 6, 7.4, and 8.5, or other special pH). The test samples were incubated at RT for at least 3 days and monitored by LCMS (i.e., at 1 hr, 2 hr, 4 hr, 8 hr, and 1 day, 2 day, 3 day, 4 day, 5 day, 6 day, 7 day, 8 day, 9 day, and 21 day time points). Initial concentrations of the samples were 0.2 mg/mL (DMSO/buffer, v/v=1/5). […] The payloads and quenched linker-payloads were mostly stable at pH >5.0, 6.0, 7.4 and 8.5 after 3 days. In more acidic conditions, such as pH 1.0, the payloads or linker-payloads were easily cleaved to release D*-OH.

[2] = Metabolic stability with human liver microsomes; format: in vitro ADME; conditions: for Area ratio of III formed from PIII-1 / Percent Remaining (%): Mean
Experimental: The metabolic stability of payload PIII-1 incubated with human liver microsomes was evaluated and the results were shown in the Table 7e below.

[3] = buffer, 1 day, 0.2 mg/mL, pH 7.4
[4] = buffer, 2 day, 0.2 mg/mL, pH 7.4
[5] = buffer, 7 day, 0.2 mg/mL, pH 7.4

SMILES: CCCC1OC2CC3C4CCC5=CC(=O)C=CC5(C)C4C(O)CC3(C)C2(C(=O)COCN2CCCC(NC(=O)OCc3ccc(NC(=O)C(CCCNC(N)=O)NC(=O)C(NC(=O)CCOCCOCCOCCOCCNC(=O)CCC(=O)N4Cc5ccccc5-c5c(nnn5CCOCCOCCOCCOCCC(=O)NCCS(=O)(=O)O)-c5ccccc54)C(C)C)cc3)C2=O)O1 (mixture of isomers) [Q1L1-PII-12]
- LP: percentage of linker-payloads remaining ([1]; pH 4.0, day 1): 100%
- P: percentage of budesonide released from the linker-payloads ([1]; pH 4.0, day 1): 0%
- LP: percentage of linker-payloads remaining ([1]; pH 4.0, day 2): 100%
- P: percentage of budesonide released from the linker-payloads ([1]; pH 4.0, day 2): 0%
- LP: percentage of linker-payloads remaining ([1]; pH 4.0, day 7): 100%
- P: percentage of budesonide released from the linker-payloads ([1]; pH 4.0, day 7): 0%
- LP: percentage of linker-payloads remaining ([1]; pH 5.0, day 1): 100%
- P: percentage of budesonide released from the linker-payloads ([1]; pH 5.0, day 1): 0%
- LP: percentage of linker-payloads remaining ([1]; pH 5.0, day 2): 100%
- P: percentage of budesonide released from the linker-payloads ([1]; pH 5.0, day 2): 0%
- LP: percentage of linker-payloads remaining ([1]; pH 5.0, day 7): 100%
- P: percentage of budesonide released from the linker-payloads ([1]; pH 5.0, day 7): 0%
- LP: percentage of linker-payloads remaining ([1]; pH 7.4, day 1): 100%
- P: percentage of budesonide released from the linker-payloads ([1]; pH 7.4, day 1): 0%
- LP: percentage of linker-payloads remaining ([1]; pH 7.4, day 2): 100%
- P: percentage of budesonide released from the linker-payloads ([1]; pH 7.4, day 2): 0%
- LP: percentage of linker-payloads remaining ([1]; pH 7.4, day 7): 100%
- P: percentage of budesonide released from the linker-payloads ([1]; pH 7.4, day 7): 0%

SMILES: CCCC1OC2CC3C4CCC5=CC(=O)C=CC5(C)C4C(O)CC3(C)C2(C(=O)COC2CCN2C(=O)CNC(=O)CCOCCOCCOCCOCCNC(=O)CCC(=O)N2Cc3ccccc3-c3c(nnn3CCOCCOCCOCCOCCC(=O)NCCS(=O)(=O)O)-c3ccccc32)O1 (mixture of isomers) [Q1L6-PII-13]
- LP: percentage of linker-payloads remaining ([1]; pH 4.0, day 1): 100%
- P: percentage of budesonide released from the linker-payloads ([1]; pH 4.0, day 1): 0%
- LP: percentage of linker-payloads remaining ([1]; pH 4.0, day 2): 100%
- P: percentage of budesonide released from the linker-payloads ([1]; pH 4.0, day 2): 0%
- LP: percentage of linker-payloads remaining ([1]; pH 4.0, day 7): 100%
- P: percentage of budesonide released from the linker-payloads ([1]; pH 4.0, day 7): 0%
- LP: percentage of linker-payloads remaining ([1]; pH 5.0, day 1): 100%
- P: percentage of budesonide released from the linker-payloads ([1]; pH 5.0, day 1): 0%
- LP: percentage of linker-payloads remaining ([1]; pH 5.0, day 2): 100%
- P: percentage of budesonide released from the linker-payloads ([1]; pH 5.0, day 2): 0%
- LP: percentage of linker-payloads remaining ([1]; pH 5.0, day 7): 100%
- P: percentage of budesonide released from the linker-payloads ([1]; pH 5.0, day 7): 0%
- LP: percentage of linker-payloads remaining ([1]; pH 6.0, day 1): 100%
- P: percentage of budesonide released from the linker-payloads ([1]; pH 6.0, day 1): 0%
- LP: percentage of linker-payloads remaining ([1]; pH 6.0, day 2): 100%
- P: percentage of budesonide released from the linker-payloads ([1]; pH 6.0, day 2): 0%
- LP: percentage of linker-payloads remaining ([1]; pH 6.0, day 7): 100%
- P: percentage of budesonide released from the linker-payloads ([1]; pH 6.0, day 7): 0%
- LP: percentage of linker-payloads remaining ([1]; pH 7.4, day 1): 100%
- P: percentage of budesonide released from the linker-payloads ([1]; pH 7.4, day 1): 0%
- LP: percentage of linker-payloads remaining ([1]; pH 7.4, day 2): 100%
- P: percentage of budesonide released from the linker-payloads ([1]; pH 7.4, day 2): 0%
- LP: percentage of linker-payloads remaining ([1]; pH 7.4, day 7): 100%
- P: percentage of budesonide released from the linker-payloads ([1]; pH 7.4, day 7): 0%

SMILES: CCCC1O[C@@H]2C[C@H]3[C@@H]4C[C@H](F)C5=CC(=O)C=C[C@]5(C)[C@@]4(F)[C@@H](O)C[C@]3(C)[C@]2(C(=O)CO)O1 (stereo partly drawn) [III from P11I-1]
- Area ratio of III formed from PIII-1 ([2]; 0 min): BQL
- Area ratio of III formed from PIII-1 ([2]; 5 min): 0.001
- Area ratio of III formed from PIII-1 ([2]; 15 min): 0.002
- Area ratio of III formed from PIII-1 ([2]; 30 min): 0.001
- Area ratio of III formed from PIII-1 ([2]; 45 min): 0.001

SMILES: CCCC1O[C@@H]2C[C@H]3[C@@H]4CCC5=CC(=O)C=C[C@]5(C)[C@H]4[C@@H](O)C[C@]3(C)[C@]2(C(=O)COCNC(=O)CNC(=O)OCc2ccc(O[C@@H]3O[C@H](CO)[C@@H](O)[C@H](O)[C@H]3O)c(C(=O)NCCNC(=O)COC3C#CCCCCC3)c2)O1 (stereo partly drawn) [L18-PII-1, COT-EDA-(GLC)PAB-G-NHCH2-Bud]
- LP: percentage of linker-payloads remaining ([1]; buffer, 1 day, 0.2 mg/mL, pH 4): 100%
- LP: percentage of linker-payloads remaining ([1]; buffer, 1 day, 0.2 mg/mL, pH 5): 100%
- LP: percentage of linker-payloads remaining ([1]; buffer, 1 day, 0.2 mg/mL, pH 6): 100%
- LP: percentage of linker-payloads remaining [1, 3]: 100%
- LP: percentage of linker-payloads remaining ([1]; buffer, 2 day, 0.2 mg/mL, pH 4): 100%
- LP: percentage of linker-payloads remaining ([1]; buffer, 2 day, 0.2 mg/mL, pH 5): 100%
- LP: percentage of linker-payloads remaining ([1]; buffer, 2 day, 0.2 mg/mL, pH 6): 100%
- LP: percentage of linker-payloads remaining [1, 4]: 100%
- LP: percentage of linker-payloads remaining ([1]; buffer, 7 day, 0.2 mg/mL, pH 4): 100%
- LP: percentage of linker-payloads remaining ([1]; buffer, 7 day, 0.2 mg/mL, pH 5): 100%
- LP: percentage of linker-payloads remaining ([1]; buffer, 7 day, 0.2 mg/mL, pH 6): 100%
- LP: percentage of linker-payloads remaining [1, 5]: 100%
- P: percentage of budesonide released from the linker-payloads ([1]; pH 4.0, day 1): 0%
- P: percentage of budesonide released from the linker-payloads ([1]; pH 4.0, day 2): 0%
- P: percentage of budesonide released from the linker-payloads ([1]; pH 4.0, day 7): 0%
- P: percentage of budesonide released from the linker-payloads ([1]; pH 5.0, day 1): 0%
- P: percentage of budesonide released from the linker-payloads ([1]; pH 5.0, day 2): 0%
- P: percentage of budesonide released from the linker-payloads ([1]; pH 5.0, day 7): 0%
- P: percentage of budesonide released from the linker-payloads ([1]; pH 6.0, day 1): 0%
- P: percentage of budesonide released from the linker-payloads ([1]; pH 6.0, day 2): 0%
- P: percentage of budesonide released from the linker-payloads ([1]; pH 6.0, day 7): 0%
- P: percentage of budesonide released from the linker-payloads ([1]; pH 7.4, day 1): 0%
- P: percentage of budesonide released from the linker-payloads ([1]; pH 7.4, day 2): 0%
- P: percentage of budesonide released from the linker-payloads ([1]; pH 7.4, day 7): 0%

SMILES: CCCC1O[C@@H]2C[C@H]3[C@@H]4CCC5=CC(=O)C=C[C@]5(C)[C@H]4[C@@H](O)C[C@]3(C)[C@]2(C(=O)COC2CCCN2C(=O)CNC(=O)CCOCCOCCOCCOCCNC(=O)CCC(=O)N2Cc3ccccc3-c3c(nnn3CCOCCOCCOCCOCCC(=O)NCCS(=O)(=O)O)-c3ccccc32)O1 (stereo partly drawn) [Q1L6-PII-9]
- LP: percentage of linker-payloads remaining ([1]; buffer, 1 day, 0.2 mg/mL, pH 4): 30%
- LP: percentage of linker-payloads remaining ([1]; buffer, 1 day, 0.2 mg/mL, pH 6): 100%
- LP: percentage of linker-payloads remaining [1, 3]: 100%
- LP: percentage of linker-payloads remaining ([1]; buffer, 2 day, 0.2 mg/mL, pH 4): 10%
- LP: percentage of linker-payloads remaining ([1]; buffer, 2 day, 0.2 mg/mL, pH 6): 100%
- LP: percentage of linker-payloads remaining [1, 4]: 100%
- LP: percentage of linker-payloads remaining ([1]; buffer, 7 day, 0.2 mg/mL, pH 4): 0%
- LP: percentage of linker-payloads remaining ([1]; buffer, 7 day, 0.2 mg/mL, pH 6): 92%
- LP: percentage of linker-payloads remaining [1, 5]: 100%
- P: percentage of budesonide released from the linker-payloads ([1]; pH 4.0, day 1): 69%
- P: percentage of budesonide released from the linker-payloads ([1]; pH 4.0, day 2): 89%
- P: percentage of budesonide released from the linker-payloads ([1]; pH 4.0, day 7): 99%
- P: percentage of budesonide released from the linker-payloads ([1]; pH 5.0, day 1): 5%
- P: percentage of budesonide released from the linker-payloads ([1]; pH 5.0, day 2): 10%
- P: percentage of budesonide released from the linker-payloads ([1]; pH 5.0, day 7): 28%
- P: percentage of budesonide released from the linker-payloads ([1]; pH 6.0, day 1): 0%
- P: percentage of budesonide released from the linker-payloads ([1]; pH 6.0, day 2): 0%
- P: percentage of budesonide released from the linker-payloads ([1]; pH 6.0, day 7): 8%
- P: percentage of budesonide released from the linker-payloads ([1]; pH 7.4, day 1): 0%
- P: percentage of budesonide released from the linker-payloads ([1]; pH 7.4, day 2): 0%
- P: percentage of budesonide released from the linker-payloads ([1]; pH 7.4, day 7): 0%

- Percent Remaining (%) ([2]; 0 min): 100.00%
- Percent Remaining (%) ([2]; 5 min): 81.45%
- Percent Remaining (%) ([2]; 15 min): 67.51%
- Percent Remaining (%) ([2]; 30 min): 41.90%
- Percent Remaining (%) ([2]; 45 min): 36.47%
- CLint scaled ([2]; human): 55.2 mL/min/kg
- half-life ([2]; human): 31.5 min
SMILES: O=C(c1ccc(F)cc1)C1CCN(CCn2c(=O)[nH]c3ccccc3c2=O)CC1 [ketanserin]
